Results from patent publication US8288550B2, “Crystalline form of a benzimidazole-carboxamide medicinal compound” (Theravance, Inc., priority 2005, dated 2012).

Tests used:
[1] = Thermal gravimetric analysis (TGA); assay type: physicochemical; conditions: heating rate 10° C./min
Method: Thermogravimetric analysis (TGA) was performed using a TA Instruments Model Q-500 module. Data were collected and analyzed using TA Instruments Thermal Advantage for Q Series™ software. A sample weighing about 2 mg was placed in an aluminum pan on a platinum cradle and scanned from ambient temperature to about 300° C. with a linear heating rate of 10° C./min. The balance and furnace chambers were purged with nitrogen during use.

[2] = Stability to milling of particles; assay type: physicochemical; conditions: milled from mean particle size about 470 microns to about 15, 22 or 29 microns
[3] = Solid state stability assessment (40° C. and 75% RH); assay type: physicochemical; conditions: three months, open glass vials
Method: Solid State Stability Assessment
Samples of the crystalline compound of Form I, prepared according to the process of Example 3, were stored in multiple open glass vials at 40° C. and 75% RH. At specific intervals, the contents of a representative vial was removed and analyzed by DSC, TGA, PXRD, and by HPLC for chemical purity.

[4] = Dynamic moisture sorption assessment; assay type: physicochemical
Method: Dynamic Moisture Sorption Assessment
Dynamic moisture sorption (DMS) assessment was performed at 25° C. using a VTI atmospheric microbalance, SGA-100 system (VTI Corp., Hialeah, Fla. 33016). A sample size of approximately 5-10 mg was used and the humidity was set at the ambient value at the start of the analysis. A typical DMS analysis consisted of three scans: ambient to 2% relative humidity (RH), 2% RH to 90% RH, 90% RH to 5% RH at a scan rate of 5% RH/step. The mass was measured every two minutes and the RH was changed to the next value (±5% RH) when the mass of the sample was stable to within 0.02% for 5 consecutive points.

Caco-2 cell monolayer = conditions: human, Caco-2, 1 h
Method: In Vitro Model of Oral Bioavailability: Caco-2 Permeation Assay
The Caco-2 permeation assay was performed to model the ability of test compounds to pass through the intestine and get into the blood stream after oral administration. The rate at which test compounds in solution permeate a cell monolayer designed to mimic the tight junction of human small intestinal monolayers was determined.
Caco-2 (colon, adenocarcinoma; human) cells were obtained from ATCC (American Type Culture Collection; Rockville, Md.). For the permeation study, cells were seeded at a density of 63,000 cells/cm^2 on pre-wetted transwells polycarbonate filters (Costar; Cambridge, Mass.). A cell monolayer was formed after 21 days in culture. Following cell culture in the transwell plate, the membrane containing the cell monolayer was detached from the transwell plate and inserted into the diffusion chamber (Costar; Cambridge, Mass.). The diffusion chamber was inserted into the heating block which was equipped with circulating external, thermostatically regulated 37° C. water for temperature control. […]
The permeation study was performed with test compound concentrations at 100 μM and with ^14C-mannitol to monitor the integrity of the monolayer. […] Samples were analyzed by HPLC or liquid scintillation counting for test compound and mannitol concentrations. The permeation coefficient (Kp) in cm/sec was calculated.

| SMILES | onset of degradation (TGA) [1] | changes by DSC, TGA or PXRD after milling [2] | change in DSC, TGA, PXRD after storage [3] | weight change (moisture sorption) ([4]; 2% to 90% RH, 25° C./room temperature) | weight change (moisture sorption) ([4]; critical humidity range of 40% to 75% RH) | permeation coefficient Kp (Caco-2 cell monolayer) |
| --- | --- | --- | --- | --- | --- | --- |
| COC(=O)N1CCC(CN2CCC(CNC(=O)c3cccc4[nH]c(C(C)C)nc34)CC2)CC1 [Form I, 4-(4-{[(2-isopropyl-1H-benzoimidazole-4-carbonyl)amino]methyl}-piperidin-1-ylmethyl)piperidine-1-carboxylic acid methyl ester] | above 240 °C | no changes detectable | no detectable changes | less than 0.25% | less than 0.1% | – |
| COC(=O)N1CCC(CN2CCC(CNC(=O)c3cccc4[nH]c(C(C)C)nc34)CC2)CC1 [compound of the invention, 4-(4-{[(2-isopropyl-1H-benzoimidazole-4-carbonyl)amino]methyl}-piperidin-1-ylmethyl)piperidine-1-carboxylic acid methyl ester] | – | – | – | – | – | greater than 50×10^−6 cm/sec |
